Article PMC6943619, “Synthesis and Pharmacological Evaluation of Hybrids Targeting Opioid and Neurokinin Receptors” (Molecules, 2019)
Where two headings read alike, the source gives them in different places. Where a SMILES comes first, the peptide text is derived from it. Bridges are numbered along the chain shown (N, C = ends). [ ]: non-standard residue; d: D form. Nle = CCCC[C@H](N)C(=O)O

Columns and labels:
[1] = molecular target: T1, human NK1 (Homo sapiens, UniProt P25103); assay: Calcium mobilization functional assay, agonist mode, CHONK1 cells; type: cell-based; parameters: expressed in transfected cells; host or cells: CHO cells (gift of Prof. T. Costa, ISS, Rome); details: for NK1 α ± SEM: efficacy (intrinsic activity), Emax relative to SP
[2] = molecular target: T1, human NK1; assay: Calcium mobilization assay, inhibition response experiments against SP; type: cell-based; parameters: expressed in transfected cells; host or cells: CHO cells (gift of Prof. T. Costa, ISS, Rome)
Protocol: Following aspiration of the loading solution and a washing step, serial dilutions of peptide stock solutions were added.
(§1) The pharmacological terminology adopted in this paper is consistent with International Union of Basic and Clinical Pharmacology (IUPHAR) recommendations. Concentration–response curves were analyzed by nonlinear regression using Graph Pad Prism 6.0 (La Jolla, CA, USA). […] Concentration–response curves were fitted with the four-parameter logistic nonlinear regression model (1) Effect=baseline+Emax−baseline/1+10^logEC50−X·n where X is the agonist concentration and n is the Hill coefficient. Ligand efficacy was expressed as intrinsic activity (α) calculated as a ratio of the peptide Emax to the Emax of the standard agonist (Supplementary Materials, Figure S7). […] All statistical analyses were performed using Graph Pad Prism 6.0 (La Jolla, CA, USA). Differences between groups were analyzed with one-way ANOVA and a post hoc multiple comparison by the Student–Newman–Keuls test. A probability level of 0.05 or smaller was used to indicate statistical significance.

[3] = molecular target: T2, human opioid receptor KOR (Homo sapiens, UniProt P41145); assay: Radioligand binding assay, displacement of [3H]U-69593; details: displacement of [3H]U-69593 from membranes of CHO cells transfected with human KOR, 50 mM Tris/HCl pH 7.4, 0.5% BSA, peptidase inhibitors, 2 h at 25 °C, mean ± SEM, n ≥ 3
T2 construct: purchased PerkinElmer (Krakow, Poland); host or cells: CHO cell membranes
Protocol: (§2) A radioligand binding assay was performed to determine the opioid receptor (OR) binding affinities of the novel analogs using commercially available membranes of Chinese hamster ovary cells (CHO) transfected with human recombinant ORs. [^3H]DAMGO, [^3H]deltorphin-2, and [^3H]U-69593 were used as the radioligands for MOR, DOR, and KOR, respectively. Tyr-[D-Lys-Phe-Phe-Asp]NH2 (1) was used as a reference opioid compound. […] None of them acquired significant DOR affinity.
(§3) To determine the affinity of peptide analogs to respective receptors, competition binding experiments were performed, as described in detail elsewhere.
(§4) Commercial membranes of CHO cells stably expressing either human ORs or NK1 receptor were used. [^3H]DAMGO, [^3H]deltorphin-2, and [^3H]U-69593 were employed as the competing radioligands for MOR, DOR, and KOR, respectively, while [^3H][Sar^9, Met(O2)^11]SP was utilized for the NK1 receptor. Membranes were incubated in a 0.5 mL volume of 50 mM Tris/HCl (pH = 7.4), 0.5% bovine serum albumin (BSA), with a number of peptidase inhibitors (bacitracin, bestatin, captopril) and various concentrations of radioligands for 2 h at 25 °C. Nonspecific binding was assessed in the presence of […] naloxone for ORs or SP for NK1 receptor.
(§5) The pharmacological terminology adopted in this paper is consistent with International Union of Basic and Clinical Pharmacology (IUPHAR) recommendations. Concentration–response curves were analyzed by nonlinear regression using Graph Pad Prism 6.0 (La Jolla, CA, USA). […]. […] Concentration–response curves were fitted with the four-parameter logistic nonlinear regression model (1) Effect=baseline+Emax−baseline/1+10^logEC50−X·n where X is the agonist concentration and n is the Hill coefficient. Ligand efficacy was expressed as intrinsic activity (α) calculated as a ratio of the peptide Emax to the Emax of the standard agonist (Supplementary Materials, Figure S7). […]. All statistical analyses were performed using Graph Pad Prism 6.0 (La Jolla, CA, USA). Differences between groups were analyzed with one-way ANOVA and a post hoc multiple comparison by the Student–Newman–Keuls test. A probability level of 0.05 or smaller was used to indicate statistical significance.

[4] = molecular target: T3, human KOR (Homo sapiens, UniProt P41145); assay: Calcium mobilization functional assay, agonist mode; type: cell-based; details: for KOR α ± SEM: efficacy (intrinsic activity), Emax relative to dynorphin A, mean ± SEM
T3 construct: expressed in transfected cells; host or cells: CHO cells (University of Ferrara), co-expressing Gαqi5

[5] = molecular target: T4, human opioid receptor DOR (Homo sapiens, UniProt P41143); assay: Radioligand binding assay, displacement of [3H]deltorphin-2; details: displacement of [3H]deltorphin-2 from membranes of CHO cells transfected with human DOR, 50 mM Tris/HCl pH 7.4, 0.5% BSA, peptidase inhibitors, 2 h at 25 °C, mean ± SEM, n ≥ 3
T4 construct: purchased PerkinElmer (Krakow, Poland); host or cells: CHO cell membranes
Protocol: A radioligand binding assay was performed to determine the opioid receptor (OR) binding affinities of the novel analogs using commercially available membranes of Chinese hamster ovary cells (CHO) transfected with human recombinant ORs. […] Tyr-[D-Lys-Phe-Phe-Asp]NH2 (1) was used as a reference opioid compound.
as §3
(§6) Commercial membranes of CHO cells stably expressing either human ORs or NK1 receptor were used. […] Membranes were incubated in a 0.5 mL volume of 50 mM Tris/HCl (pH = 7.4), 0.5% bovine serum albumin (BSA), with a number of peptidase inhibitors (bacitracin, bestatin, captopril) and various concentrations of radioligands for 2 h at 25 °C.
as §1

[6] = molecular target: T5, human MOR (Homo sapiens, UniProt P35372); assay: Calcium mobilization functional assay, agonist mode; type: cell-based; details: CHO cells co-expressing human MOR and Gαqi5, n = 5; for EC50: Fluo-4 AM calcium signal, read-out: MOR pEC50 (CL95%) (converted); for MOR α ± SEM: efficacy (intrinsic activity), Emax relative to EM-2, mean ± SEM
T5 construct: expressed in transfected cells; host or cells: CHO cells (University of Ferrara), co-expressing Gαqi5

[7] = molecular target: T6, human opioid receptor MOR (Homo sapiens, UniProt P35372); assay: Radioligand binding assay, displacement of [3H]DAMGO; details: displacement of [3H]DAMGO from membranes of CHO cells transfected with human MOR, 50 mM Tris/HCl pH 7.4, 0.5% BSA, peptidase inhibitors, 2 h at 25 °C, mean ± SEM, n ≥ 3
T6 construct: purchased PerkinElmer (Krakow, Poland); host or cells: CHO cell membranes
Protocol: as §2, §3, §4, §5

[8] = molecular target: T7, DOR (Homo sapiens, UniProt P41143); assay: Calcium mobilization functional assay, agonist mode; type: cell-based; details: CHO cells co-expressing DOR and GαqG66Di5, n = 5; for DOR α ± SEM: efficacy (intrinsic activity), Emax relative to DPDPE, mean ± SEM; for EC50: read-out: DOR pEC50 (CL95%) (converted)
T7 construct: expressed in transfected cells; host or cells: CHO cells (University of Ferrara), co-expressing GαqG66Di5

[9] = molecular target: T1, human NK1; assay: Radioligand binding assay, displacement of [3H][Sar9, Met(O2)11]SP; parameters: purchased PerkinElmer (Krakow, Poland); host or cells: CHO cell membranes; details: displacement of [3H][Sar9, Met(O2)11]SP from membranes of CHO cells transfected with human NK1 receptor; 50 mM Tris/HCl pH 7.4, 0.5% BSA, peptidase inhibitors, 2 h at 25 °C; mean ± SEM, n ≥ 3; SEM
Protocol: The binding assay was also used to examine the affinity of the synthesized hybrids for NK1 in commercial membranes of CHO cells stably expressing human NK1.
as §3, §6, §1

[10] = CHO cells co-expressing human KOR and Gαqi5, Fluo-4 AM calcium signal, n = 5, read-out: KOR pEC50 (CL95%) (converted)
[11] = CHO cells co-expressing human KOR and Gαqi5, n = 5

T1 sequence (P25103 whole entry): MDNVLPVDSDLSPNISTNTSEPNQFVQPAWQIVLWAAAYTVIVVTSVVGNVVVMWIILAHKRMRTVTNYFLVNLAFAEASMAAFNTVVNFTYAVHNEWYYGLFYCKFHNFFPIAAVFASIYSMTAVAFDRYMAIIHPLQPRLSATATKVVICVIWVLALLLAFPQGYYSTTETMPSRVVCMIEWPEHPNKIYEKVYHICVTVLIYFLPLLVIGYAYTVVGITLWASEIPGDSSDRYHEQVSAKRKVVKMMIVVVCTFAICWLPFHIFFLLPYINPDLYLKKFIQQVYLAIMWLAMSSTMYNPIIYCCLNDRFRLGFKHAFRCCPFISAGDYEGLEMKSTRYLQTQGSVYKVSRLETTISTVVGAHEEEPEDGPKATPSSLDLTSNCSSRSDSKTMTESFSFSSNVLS
T5 sequence (P35372 whole entry): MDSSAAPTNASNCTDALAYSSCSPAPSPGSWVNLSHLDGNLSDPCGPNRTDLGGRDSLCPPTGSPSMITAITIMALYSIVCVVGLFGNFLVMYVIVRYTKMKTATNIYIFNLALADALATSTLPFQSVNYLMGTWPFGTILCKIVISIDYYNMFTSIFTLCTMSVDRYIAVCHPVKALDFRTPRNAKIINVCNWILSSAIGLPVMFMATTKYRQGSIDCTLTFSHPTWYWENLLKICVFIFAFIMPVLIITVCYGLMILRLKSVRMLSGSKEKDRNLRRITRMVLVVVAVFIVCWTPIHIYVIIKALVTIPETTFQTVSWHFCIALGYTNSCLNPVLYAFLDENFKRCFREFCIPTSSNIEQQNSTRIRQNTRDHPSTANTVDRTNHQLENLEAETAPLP
T6 sequence (P35372 whole entry): as above
T3 sequence (P41145 whole entry): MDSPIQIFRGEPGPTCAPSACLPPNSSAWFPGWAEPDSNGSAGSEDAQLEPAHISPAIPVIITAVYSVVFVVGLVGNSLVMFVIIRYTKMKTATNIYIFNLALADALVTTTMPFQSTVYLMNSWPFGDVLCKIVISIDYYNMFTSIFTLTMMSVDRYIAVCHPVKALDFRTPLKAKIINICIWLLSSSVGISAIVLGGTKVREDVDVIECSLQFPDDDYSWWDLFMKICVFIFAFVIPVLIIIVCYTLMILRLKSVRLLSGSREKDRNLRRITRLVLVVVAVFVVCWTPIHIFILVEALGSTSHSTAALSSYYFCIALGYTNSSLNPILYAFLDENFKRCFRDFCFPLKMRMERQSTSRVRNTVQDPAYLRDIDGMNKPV
T2 sequence (P41145 whole entry): as above
T4 sequence (P41143 whole entry): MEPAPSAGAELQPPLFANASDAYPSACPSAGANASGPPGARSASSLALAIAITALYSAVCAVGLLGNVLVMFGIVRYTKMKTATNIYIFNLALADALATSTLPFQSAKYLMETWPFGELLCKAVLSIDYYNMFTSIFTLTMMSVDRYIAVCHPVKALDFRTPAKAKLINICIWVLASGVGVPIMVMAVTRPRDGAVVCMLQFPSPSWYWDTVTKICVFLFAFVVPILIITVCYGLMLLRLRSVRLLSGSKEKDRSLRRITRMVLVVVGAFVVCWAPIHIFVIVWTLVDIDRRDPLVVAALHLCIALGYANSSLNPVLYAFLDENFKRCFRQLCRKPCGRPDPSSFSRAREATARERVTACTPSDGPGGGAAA
T7 sequence (P41143 whole entry): as above

Question: For `C[C@@H](O[C@H]1OCCN(Cc2n[nH]c(=O)[nH]2)[C@H]1c1ccc(F)cc1)c1cc(C(F)(F)F)cc(C(F)(F)F)c1` [aprepitant, reference compound], which “effect per se on intracellular calcium levels (tested as an agonist)” value ([1]; CHONK1 cells, up to 10 µM) is on record?
Answer: did not modify

Question: Which Kb [2] does the source give for `CCCC[C@H](NC(=O)[C@H](CC(C)C)NC(=O)[C@@H](Cc1c[nH]c2ccccc12)NC(=O)[C@H](Cc1ccccc1)NC(=O)[C@@H](Cc1c[nH]c2ccccc12)NC(=O)[C@@H]1CC(=O)NCCCC[C@@H](NC(=O)[C@@H](N)Cc2ccc(O)cc2)C(=O)N[C@@H](Cc2ccccc2)C(=O)N[C@@H](Cc2ccccc2)C(=O)N1)C(N)=O` [compound 3, Tyr-[D-Lys-Phe-Phe-Asp]-D-Trp-Phe-D-Trp-Leu-Nle-NH2] (H-Y[dK]FFD[dW]F[dW]L[Nle]-NH2; lactam 2-5) here?
Answer: 23.4 nM

Question: What about the “NK1 pEC50 (CL95%)” value ([1]; CHO cells expressing human NK1 (CHONK1), Fluo-4 AM calcium signal, N = 5) of the same molecule?
Answer: Inactive

Question: And the “NK1 α ± SEM” value ([1]; CHONK1 cells, N = 5)?
Answer: Inactive

Question: And the Ki [3]?
Answer: 2.85 ± 0.44 nM

Question: And the EC50 [4, 10]?
Answer: 3.55 nM

Question: What about the “KOR α ± SEM” value [4, 11] of the same molecule?
Answer: 1.05 ± 0.05

Question: What about the Ki [5] of the same molecule?
Answer: 213 ± 6.31 nM

Question: And the EC50 [6]?
Answer: 174 nM

Question: And the “MOR α ± SEM” value [6]?
Answer: 0.72

Question: And the “MOR α ± SEM” value ([6]; SEM)?
Answer: 0.72 ± 0.04

Question: What about the Ki [7] of the same molecule?
Answer: 28.2 ± 1.45 nM

Question: What about the “DOR pEC50 (CL95%)” value ([8]; Fluo-4 AM calcium signal) of the same molecule?
Answer: Crc incomplete

Question: And the “DOR α ± SEM” value [8]?
Answer: Crc incomplete

Question: And the Ki [9]?
Answer: 12.8 ± 0.92 nM

Question: Which results are given for `CSCC[C@H](NC(=O)[C@H](CC(C)C)NC(=O)CNC(=O)[C@H](Cc1ccccc1)NC(=O)[C@H](Cc1ccccc1)NC(=O)[C@@H]1CC(=O)NCCCC[C@@H](NC(=O)[C@@H](N)Cc2ccc(O)cc2)C(=O)N[C@@H](Cc2ccccc2)C(=O)N[C@@H](Cc2ccccc2)C(=O)N1)C(N)=O` [compound 5, Tyr-[D-Lys-Phe-Phe-Asp]-Phe-Phe-Gly-Leu-Met-NH2] (H-Y[dK]FFDFFGLM-NH2; lactam 2-5)?
Answer: EC50 [1]: 15.8 nM; NK1 α ± SEM ([1]; CHONK1 cells, N = 5, SEM): 1.11 ± 0.05; Ki [3]: 28.3 ± 1.71 nM; EC50 [4]: 67.6 nM; KOR α ± SEM [4, 11]: 0.64 ± 0.04; Ki [5]: 96.6 ± 3.8 nM; MOR α ± SEM ([6]; SEM): 0.86 ± 0.03; Ki [7]: 4.9 ± 0.34 nM; EC50 ([8]; Fluo-4 AM calcium signal): 389 nM; DOR α ± SEM ([8]; SEM): 0.50 ± 0.01; Ki [9]: 51.6 ± 4.2 nM

Question: With `CSCC[C@H](NC(=O)[C@H](CC(C)C)NC(=O)CNC(=O)[C@H](Cc1ccccc1)NC(=O)[C@@H]1CC(=O)NCCCC[C@@H](NC(=O)[C@@H](N)Cc2ccc(O)cc2)C(=O)N[C@@H](Cc2ccccc2)C(=O)N[C@@H](Cc2ccccc2)C(=O)N1)C(N)=O` [compound 6, Tyr-[D-Lys-Phe-Phe-Asp]-Phe-Gly-Leu-Met-NH2] (H-Y[dK]FFDFGLM-NH2; lactam 2-5) as the molecule, how does the EC50 [1] read?
Answer: 776 nM

Question: And the “NK1 α ± SEM” value ([1]; CHONK1 cells, N = 5, SEM)?
Answer: 1.03 ± 0.05

Question: What about the Ki [3] of the same molecule?
Answer: 2.7 ± 0.12 nM

Question: What about the EC50 [4, 10] of the same molecule?
Answer: 4.68 nM

Question: And the “KOR α ± SEM” value [4, 11]?
Answer: 0.92 ± 0.02

Question: And the Ki [5]?
Answer: 28.7 ± 1.01 nM

Question: And the EC50 [6]?
Answer: 9.12 nM

Question: What about the “MOR α ± SEM” value ([6]; SEM) of the same molecule?
Answer: 0.81 ± 0.05

Question: And the Ki [7]?
Answer: 2.98 ± 0.14 nM

Question: And the EC50 ([8]; Fluo-4 AM calcium signal)?
Answer: 151 nM

Question: And the “DOR α ± SEM” value ([8]; SEM)?
Answer: 0.65 ± 0.05

Question: What about the Ki [9] of the same molecule?
Answer: 2330 ± 189 nM

Question: For `CSCC[C@H](NC(=O)[C@H](CC(C)C)NC(=O)CNC(=O)[C@@H]1CC(=O)NCCCC[C@@H](NC(=O)[C@@H](N)Cc2ccc(O)cc2)C(=O)N[C@@H](Cc2ccccc2)C(=O)N[C@@H](Cc2ccccc2)C(=O)N1)C(N)=O` [compound 7, Tyr-[D-Lys-Phe-Phe-Asp]-Gly-Leu-Met-NH2] (H-Y[dK]FFDGLM-NH2; lactam 2-5), which EC50 [1] is on record?
Answer: 2090 nM

Question: And the “NK1 α ± SEM” value ([1]; CHONK1 cells, N = 5, SEM)?
Answer: 0.99 ± 0.08

Question: What about the Ki [3] of the same molecule?
Answer: 0.89 ± 0.04 nM

Question: What about the EC50 [4, 10] of the same molecule?
Answer: 1.58 nM

Question: And the “KOR α ± SEM” value [4, 11]?
Answer: 1.06 ± 0.06

Question: What about the Ki [5] of the same molecule?
Answer: 113 ± 4.6 nM

Question: What about the EC50 [6] of the same molecule?
Answer: 2.04 nM

Question: And the “MOR α ± SEM” value ([6]; SEM)?
Answer: 0.85 ± 0.05

Question: What about the Ki [7] of the same molecule?
Answer: 1.14 ± 0.21 nM

Question: What about the EC50 ([8]; Fluo-4 AM calcium signal) of the same molecule?
Answer: 363 nM

Question: What about the “DOR α ± SEM” value ([8]; SEM) of the same molecule?
Answer: 0.38 ± 0.04

Question: And the Ki [9]?
Answer: 8130 ± 724 nM
